Test results as given in patent US11974990B2, “TXNIP-TRX complex inhibitors and methods of using the same” (City of Hope, priority 2018, dated 2024).
“Also recorded” adds a separate entry of the source.

Columns and labels:
[1] = target: T1, TXNIP (Homo sapiens, UniProt Q9H3M7); assay: DARTS assay (drug affinity responsive target stability) in THP1 cell extracts; assay type: binding; conditions: THP1 extracts after 25 mM glucose 72 h; 10 and 20 minutes, 0.5 to 4 uM lanes (FIG. 15)
T1 construct: Cell extracts were prepared; endogenous in cells; host or cells: THP1 cell lysate (25 mM glucose, 72 h)
T1 sequence (Q9H3M7 1-391): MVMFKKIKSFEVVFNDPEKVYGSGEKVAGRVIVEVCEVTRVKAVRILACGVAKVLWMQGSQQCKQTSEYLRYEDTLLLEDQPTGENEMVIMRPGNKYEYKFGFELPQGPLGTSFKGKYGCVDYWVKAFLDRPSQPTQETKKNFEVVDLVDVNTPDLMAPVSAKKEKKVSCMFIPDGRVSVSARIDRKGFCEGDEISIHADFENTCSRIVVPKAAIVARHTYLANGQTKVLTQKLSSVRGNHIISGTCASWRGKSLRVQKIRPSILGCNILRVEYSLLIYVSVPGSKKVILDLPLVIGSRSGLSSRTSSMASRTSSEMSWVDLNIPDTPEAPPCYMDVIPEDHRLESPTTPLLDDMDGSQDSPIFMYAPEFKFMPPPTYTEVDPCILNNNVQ
Experimental: FIG. 15. […] THP1 cell were cultured in RPMI 1640 medium in 25 mM glucose for 72 hours. Cell extracts were prepared. C1 was added at the indicated concentrations and protease was added except in control cells. Aliquots were withdrawn at 10, 20, 30 and 40 minutes and loaded onto 10% SDS gels. C1: compound 1; control: without protease.
Assay 3: DARTS Assay (drug affinity responsive target stability). We adopted the DARTS assay because it is a straightforward method to check if a compound interacts with TXNIP. In this assay, when a compound binds to its target molecule, it can reduce the rate of its proteolytic digestion.
The drug affinity response target stability assay (DARTS assay) is a method to identify potential protein targets (binders) of small molecules. The advantage of this method is being able to use the native small molecule without having to immobilize or modify the […] (e.g., by incorporation of biotin, fluorescent molecules, radioisotope, or photo-affinity labels). In this case, it relies on the protection against proteolysis conferred on TXNIP by interaction with a small molecule (lead compound).
Drug affinity responsive target stability (DARTS) assay. DARTS assay was conducted according to a published protocol (Lomenick et al., 2009; Pai et al., 2015). THP1 cells were lysed with extract buffer. […]

[2] = target: T2, TXNIP-TRX complex (Homo sapiens, UniProt Q9H3M7); assay: Co-IP using extracts from high glucose treated THP1 cells in the presence of compounds; assay type: biochemical; conditions: extracts of THP1 cells treated with 25 mM glucose 3 days; compounds added to extract (5 uM)
T2 construct: Co-immunoprecipitation (Co-IP) of TXNIP with TRX in THP 1 monocytes cells treated with compounds under high glucose condition; endogenous in cells; host or cells: THP1 human monocytes cultured in 25 mM glucose
T2 sequence (Q9H3M7 1-391): T1 sequence (Q9H3M7 1-391)
Experimental: Assay 2: Co-IP using extracts from THP 1 cells treated high glucose and in the presence of compounds. In this assay, TXNIP is already highly expressed (because the cells are treated with HG), we assume there is high concentration of TXNIP/TRX complexes in the cell extract. Co-IPs were done in these extracts through adding TRX antibody and compounds. If a compound is able to break the (pre-formed) TXNIP/TRX complex, there will be a reduced signal (band intensity) in the assay.
Co-IP with THP1 high glucose treated extract in the presence of the compounds. THP1 cells were treated with 25 mM glucose for 3 days, the cell extract were prepared. Them 300 ul extract were used for TP. Compounds were added to 5 uM Co-IP were followed according to the Co-IP protocol.
1. Transfer the cultured cells from the culture dish to a 15-mL conical tube. 2. Centrifuge at 500×g for 2 min at 4° C. and remove the supernatant. 3. Wash with ice-cold PBS and centrifuge at 500×g for 2 min at 4° C. Remove the supernatant. 4. Repeat Step 3 twice.
5. Resuspend the cell pellet in ice-cold cell lysis buffer (1 mL per 1×10^7 cells) and incubate on ice for 10 min. 6. […]
Note: Pre-clearing the lysate is recommended to reduce the non-specific binding. However, if the protein is detected by western blotting, pre-clearing may not be necessary unless a contaminating protein is interfering with visualization of the protein of interest. […]

## CC(C)C(C(=O)O)N1C(=O)c2ccncc2C1=O (centres unmarked) [Compound C1, 2-(1,3-dioxo-1,3-dihydro-2H-pyrrolo[3,4-c]pyridin-2-yl)-3-methylbutanoic acid]
[1]
  protection of TXNIP from proteolysis: stabilizes TXNIP by binding to it; also recorded: bind to TXNIP and prevent its proteolysis; also recorded: protects TXNIP from proteolysis
[2]
  effect on pre-formed TXNIP/TRX complex (co-IP band intensity): inhibit high glucose-induced TXNIP-TRX co-immunoprecipitation in cell extracts; also recorded: reproducibly can affect TXNIP/TRX complex
